Test results reported in the supplement of paper PMC10307832.

Assays:
Assay in all cases: relative viability (nuclei count vs DMSO), 5 days (fraction); higher = more cells survive
FG-4592 + Crizotinib = compound: Cc1nc(C(=O)NCC(=O)O)c(O)c2ccc(Oc3ccccc3)cc12 [FG-4592] + C[C@@H](Oc1cc(-c2cnn(C3CCNCC3)c2)cnc1N)c1c(Cl)ccc(F)c1Cl [Crizotinib] (partner 1 µM)
In short: (§1)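 Relative viability was taken as the ratio of nuclei in treated wells to nuclei in vehicle wells. Lung cancer cell lines in 1536-well plates received compounds by pin tool one day after seeding, either one drug alone or a fixed anchor-drug dose plus five library-drug doses (not always all listed) in √10 steps. Nuclei were counted on 4× images after 5 days of treatment, and values are medians of duplicate plates.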

FG-4592 + Foretinib = compound: Cc1nc(C(=O)NCC(=O)O)c(O)c2ccc(Oc3ccccc3)cc12 [FG-4592] + COc1cc2c(Oc3ccc(NC(=O)C4(C(=O)Nc5ccc(F)cc5)CC4)cc3F)ccnc2cc1OCCCN1CCOCC1 [Foretinib] (partner 0.25 µM)
In short: as §1

IU1-47 + Dasatinib = compound: CC1=CC(=C(N1C2=CC=C(C=C2)Cl)C)C(=O)CN3CCCCC3 [IU1-47] + Cc1nc(Nc2ncc(C(=O)Nc3c(C)cccc3Cl)s2)cc(N2CCN(CCO)CC2)n1 [Dasatinib] (partner 0.075 µM)
In short: as §1

IU1-47 + Alpelisib = compound: CC1=CC(=C(N1C2=CC=C(C=C2)Cl)C)C(=O)CN3CCCCC3 [IU1-47] + Cc1nc(NC(=O)N2CCC[C@H]2C(N)=O)sc1-c1ccnc(C(C)(C)C(F)(F)F)c1 [Alpelisib] (partner 2 µM)
In short: as §1

Row | Cell Line | relative viability (FG-4592 + Crizotinib; first compound 0.08 µM) | relative viability (FG-4592 + Crizotinib; first compound 0.253 µM) | relative viability (FG-4592 + Crizotinib; first compound 0.8 µM) | relative viability (FG-4592 + Crizotinib; first compound 2.53 µM) | relative viability (FG-4592 + Crizotinib; first compound 8 µM) | relative viability (FG-4592 + Foretinib; first compound 0.08 µM) | relative viability (FG-4592 + Foretinib; first compound 0.253 µM) | relative viability (FG-4592 + Foretinib; first compound 0.8 µM) | relative viability (FG-4592 + Foretinib; first compound 2.53 µM) | relative viability (FG-4592 + Foretinib; first compound 8 µM) | relative viability (IU1-47 + Dasatinib; first compound 0.08 µM) | relative viability (IU1-47 + Dasatinib; first compound 0.253 µM) | relative viability (IU1-47 + Dasatinib; first compound 0.8 µM) | relative viability (IU1-47 + Dasatinib; first compound 2.53 µM) | relative viability (IU1-47 + Dasatinib; first compound 8 µM) | relative viability (IU1-47 + Alpelisib; first compound 0.08 µM) | relative viability (IU1-47 + Alpelisib; first compound 0.253 µM) | relative viability (IU1-47 + Alpelisib; first compound 0.8 µM) | relative viability (IU1-47 + Alpelisib; first compound 2.53 µM) | relative viability (IU1-47 + Alpelisib; first compound 8 µM)
1 | HCC-78 | 0.312 | 0.332 | 0.269 | 0.31 | 0.337 | 0.556 | 0.561 | 0.52 | 0.541 | 0.576 | 0.378 | 0.389 | 0.324 | 0.373 | 0.336 | 0.387 | 0.319 | 0.391 | 0.327 | 0.294
2 | HCC-366 | 0.469 | 0.471 | 0.565 | 0.628 | 0.325 | 0.926 | 0.844 | 0.956 | 0.994 | 0.863 | 0.679 | 0.694 | 0.621 | 0.689 | 0.584 | 0.479 | 0.424 | 0.524 |  | 0.231
3 | HCC-827 | 0.92 | 0.892 | 0.923 | 1.02 | 0.869 | 1.06 | 0.899 | 1.04 | 1.03 | 1.06 | 0.345 | 0.366 | 0.301 | 0.288 | 0.387 | 1.08 | 1.05 | 0.91 | 1.1 | 0.905
4 | HOP-62 | 0.981 | 0.89 | 1.01 | 0.922 | 0.654 | 1.13 | 1.03 | 1.12 | 1.05 | 0.986 | 0.673 | 0.652 | 0.709 | 0.531 | 0.564 | 1.16 | 1.21 | 1.05 | 1.11 | 1.01
5 | IA-LM | 0.766 | 0.824 | 0.805 | 0.644 | 0.76 | 1.19 | 1.14 | 1.18 | 1.14 | 1.08 |  |  |  |  |  | 0.738 | 0.595 | 0.854 | 0.679 | 0.526
6 | LC-2-ad | 0.433 | 0.412 | 0.48 | 0.508 | 0.486 | 0.88 | 0.838 |  | 0.789 | 0.877 | 0.466 | 0.524 | 0.523 | 0.491 | 0.42 | 0.897 | 0.951 | 0.919 | 0.973 | 0.767
7 | LCLC-97TM1 | 0.347 | 0.342 | 0.372 |  | 0.435 | 0.9 | 0.901 | 0.876 | 0.887 | 0.866 | 0.98 | 0.971 | 1.03 | 0.841 | 0.776 | 0.276 | 0.248 | 0.249 |  | 0.242
8 | LCLC-103H | 0.884 | 0.977 | 1.01 | 0.994 | 1.05 | 0.716 | 0.671 | 0.632 | 0.799 | 0.769 | 0.49 | 0.471 | 0.491 | 0.465 | 0.345 | 0.854 | 0.989 | 0.983 | 0.914 | 1.05
9 | LK-2 |  | 0.23 |  | 0.279 | 0.216 | 1.17 | 0.95 |  | 1.19 | 0.993 | 0.221 | 0.185 | 0.264 | 0.24 | 0.28 | 1.13 | 1.23 | 1.63 | 0.997 | 0.628
10 | LOU-NH91 | 0.738 | 0.677 | 0.716 | 0.727 | 0.715 | 0.971 | 0.879 | 0.917 | 0.868 | 0.91 | 0.597 | 0.581 | 0.605 | 0.608 | 0.534 | 0.761 | 0.75 | 0.71 | 0.692 | 0.668
11 | LU99A | 0.534 | 0.523 | 0.543 | 0.558 | 0.58 | 0.789 | 0.791 | 0.743 | 0.879 | 0.808 | 0.756 | 0.499 | 0.457 | 0.659 | 0.462 | 0.498 | 0.59 | 0.488 | 0.627 | 0.663
12 | NCI-H522 |  |  |  |  |  |  |  |  |  |  | 0.807 | 0.872 | 0.748 | 0.759 | 0.907 |  |  |  |  | 
13 | NCI-H1299 | 0.953 | 0.903 | 0.976 | 0.93 | 0.989 | 1.12 | 1.06 | 1.15 | 1.07 | 1.07 |  |  |  |  |  | 1.05 | 1.11 | 1.13 | 1.13 | 0.987
14 | NCI-H1395 |  |  |  |  |  | 1.06 | 0.889 | 0.981 | 0.997 | 0.963 | 0.422 | 0.451 | 0.457 | 0.374 | 0.374 | 1.07 | 1.01 | 1.04 |  | 0.991
15 | NCI-H1623 |  |  |  |  |  | 0.825 | 0.846 | 0.795 | 0.731 | 0.724 | 0.588 | 0.571 | 0.588 | 0.591 | 0.555 |  |  |  |  | 
16 | NCI-H1650 | 1.14 | 0.826 | 1.21 | 1.05 | 1.02 | 1.24 | 0.903 | 1.21 | 1.33 | 1.04 | 0.269 | 0.311 | 0.283 | 0.292 | 0.27 |  |  |  |  | 
17 | NCI-H1703 | 0.591 | 0.572 | 0.702 | 0.44 | 0.733 |  | 0.312 | 0.34 | 0.321 | 0.339 |  |  |  |  |  | 0.264 | 0.273 | 0.286 | 0.355 | 0.301
18 | NCI-H1792 | 0.96 | 0.764 | 0.812 | 1.01 | 0.975 |  |  |  |  |  | 0.937 | 0.876 | 1.03 | 0.556 | 0.803 | 0.824 | 0.708 | 0.647 | 0.444 | 0.55
19 | NCI-H1793 |  |  |  |  |  | 0.739 | 0.71 |  | 0.593 | 0.554 | 0.458 | 0.298 | 0.403 |  | 0.409 | 0.83 | 0.683 | 0.901 |  | 0.665
20 | NCI-H2342 |  |  |  |  |  | 1 | 1.01 | 1.06 | 0.959 | 0.993 | 0.328 | 0.344 | 0.32 | 0.301 | 0.307 |  |  |  |  | 
21 | SW 900 |  |  |  |  |  | 0.823 | 0.947 | 1.08 | 1.17 | 0.833 | 0.664 | 0.529 | 0.7 | 0.556 | 0.742 |  |  |  |  | 
